Data reported in US6858217B2, “Stabilization of terpenoids in cosmetic compositions” (Unilever Home & Personal Care USA division of Conopco, Inc., priority 2002, dated 2005).

Key:
[1] = Storage stability of limonene in skin lotion, GC/HS; settings: for initial GC/HS: skin lotion with 1.0% fragrance (limonene 20%)
Excerpt: (§1) The stability of terpenoid components of typical fragrances was examined in skin care formulations containing 4-substituted resorcinol derivatives to determine the resorcinol's effectiveness toward preventing degradation and loss of terpenoid upon storage. Two terpenoid components, limonene and linalool, were formulated as part of a fragrance in standard skin care lotions containing BHT (a standard antioxidant), unsubstituted resorcinol, 4-ethyl resorcinol and 4-hexyl resorcinol. The stability of these fragrance components was measured using GC/HS analysis to determine the loss of each terpenoid molecule with time as stored under typical consumer product storage conditions storage (5-month storage at 40° C. and in the sun at Room Temperature [RT]). The loss of limonene and linalool in a standard formulation containing no “anti-oxidants” was directly compared to loss of these materials with both BHT, unsubstituted resorcinol and the 4-substituted resorcinol derivatives.
(§2) With reference to the data in the Tables below, GC/HS measurements were taken on an Agilent 6890 GC/5973 MS using a Gerstel MPS2 Headspace Sampler. The samples were incubated at 35° C. for one hour and then 2.50 mL of the headspace above the sample was injected onto a Agilent Technologies number 19091S-433, HP-5MS, 5% Phenyl Methyl Siloxane column which has a 30 m×0.25 mm ID with a 0.25 μm film thickness. The GC data is recorded as peak area count for the two fragrance components.
(§3) The formulations in the Table below were prepared in accordance with the method set forth in Example 1 hereinabove.

[2] = Storage stability of linalool in skin lotion, GC/HS; settings: for initial GC/HS: skin lotion with 1.0% fragrance (linalool 20%)
Excerpt: as §1, §2, §3

[3] = Overall stabilization of terpenoid fragrance components in skin lotion; assay type: physicochemical; settings: limonene and linalool in skin lotions, 5-month storage (sun RT, 40° C.)
Excerpt: In most cases, the “control” formulation without anti-oxidants or the control with the unsubstituted resorcinol lost twice as much limonene and/or linalool as those formulations containing the 4-substituted resorcinols.

[4] = 5-month storage in the sun at RT

40° C. 5-months GC/HS ([1]; 5-month storage at 40° C.) [peak area count] | 40° C. % Loss ([1]; 5-month storage at 40° C.) [%] | Sun 5-months GC/HS [1, 4] [peak area count] | Sun % Loss [1, 4] [%] | initial GC/HS [1] [peak area count] | 40° C. 5-months GC/HS ([2]; 5-month storage at 40° C.) [peak area count] | 40° C. % Loss ([2]; 5-month storage at 40° C.) [%] | Sun 5-months GC/HS [2, 4] [peak area count] | Sun % Loss [2, 4] [%] | initial GC/HS [2] [peak area count] | stabilizing terpenoid molecules against degradation [3] | SMILES | 40° C. % Stabilization ([1]; 5-month storage at 40° C.) [%] | Sun % Stabilization [1, 4] [%] | 40° C. % Stabilization ([2]; 5-month storage at 40° C.) [%] | Sun % Stabilization [2, 4] [%]
46790409 | 12.9 | 54753996 | 0 | 54736538 | 2292953 | 30.2 | 2650924 | 19.4 | 3288967 | – | CCc1ccc(O)cc1O [4-EthylResorcinol, 4-ethyl resorcinol] | – | – | – | –
3381932 | 18.5 | 34662250 | 7.7 | 40778538 | 1466948 | 10.2 | 1666185 | 7.5 | 2222930 | – | CCCCCCc1ccc(O)cc1O [4-HexylResorcinol, 4-hexyl resorcinol] | – | – | – | –
19260141 | 57.6 | 25743642 | 43.4 | 45478209 | 4286137 | 29.6 | 3856563 | 36.7 | 6088780 | little to no stabilization | Oc1cccc(O)c1 [Resorcinol] | – | – | – | –

SMILES | 40° C. 5-months GC/HS ([1]; 5-month storage at 40° C.) [peak area count] | 40° C. % Loss ([1]; 5-month storage at 40° C.) [%] | Sun 5-months GC/HS [1, 4] [peak area count] | Sun % Loss [1, 4] [%] | initial GC/HS [1] [peak area count] | 40° C. 5-months GC/HS ([2]; 5-month storage at 40° C.) [peak area count] | 40° C. % Loss ([2]; 5-month storage at 40° C.) [%] | Sun 5-months GC/HS [2, 4] [peak area count] | Sun % Loss [2, 4] [%] | initial GC/HS [2] [peak area count] | stabilizing terpenoid molecules against degradation [3] | 40° C. % Stabilization ([1]; 5-month storage at 40° C.) [%] | Sun % Stabilization [1, 4] [%] | 40° C. % Stabilization ([2]; 5-month storage at 40° C.) [%] | Sun % Stabilization [2, 4] [%]
Cc1cc(C(C)(C)C)c(O)c(C(C)(C)C)c1 [BHT Sample, BHT] | 26286287 | 31.7 | 32465677 | 15.3 | 38342803 | 4918953 | 28.2 | 4678449 | 31.4 | 6853529 | – | 35 | 48 | 29 | 16.5
